Results taken from publication PMC10283505, “CVM-1118 (foslinanib), a 2-phenyl-4-quinolone derivative, promotes apoptosis and inhibits vasculogenic mimicry via targeting TRAP1” (Pathology and Oncology Research, 2023).

Experiments:
HCT-116 = test: In vivo vasculogenic mimicry (CD31−/RBC+ channels) in orthotopic HCT-116 xenograft; design: species or system BALB/c nude mice; details: 100 mg/kg oral, excised colon tumor tissues, vs vehicle
Method: This animal study was contracted to CrownBio International R&D Center (Beijing, China) and was conducted under the approval of the Animal Ethics Committee at CrownBio in compliance with institutional and national guidelines. Seven-to eight-week-old female BALB/c nude mice were obtained from HFK Bio-Technology Co., Ltd. (Beijing, China). HCT-116 cells (2 × 10^6) were suspended in 20 μL PBS and then injected into the cecal wall. Treatment began on day 14 after cell inoculation when tumor reached ∼100 mm^3 measured in a satellite group of three mice. Treatment groups include vehicle control [PEG400:pH 10 carbonate buffer (40:60)], CVM-1118 at 20, 50, and 100 mg/kg given orally daily for 28 days, and CVM-1118 at 20 mg/kg given as intravenous injection once every 2 days for 7 times. Tumor volumes were measured at the end of in-life study on day 43. […] Briefly, rabbit anti-human CD31 antibody (Abcam) was used as the primary Ab for the staining and the number of channels with CD31+/red blood cell (RBC)+, or CD31−/RBC+ were counted based on five light fields (×200) on the whole section of each sample in each group under microscope. […] Statistical analysis for VM formation was evaluated using Mann-Whitney test. All data were analyzed using GraphPad Prism 9.5.

MOLT-4 = test: NCI 60 cytotoxicity screening; assay type: cell-based; details: Homo sapiens; MOLT-4, Leukemia
SKOV3 = test: Succinate level (Abcam kit, hypoxia); assay type: cell-based, human; details: SKOV3, 100 nM, 72 h, vs vehicle control
Method: (§1) Succinate levels in the cells were assessed using the Abcam assay kit (ab204718). Cells were grown under hypoxic conditions (1% O2) at 37°C using a ProOx P110 Oxygen Controller (BioSpherix) and hypoxia chamber to establish a consistent and steady expression of HIF-1α in these cells for the experiments. At 80% confluence, cells were rinsed with phosphate buffered saline (PBS; 137 mM NaCl/2.7 mM KCl/10 mM Na2HPO4/1.8 mM KH2PO4, pH 7.4), then harvested by scrapping into a modified radio-immunoprecipitation assay (RIPA) buffer (100 mM Tris-HCl, 150 mM NaCl, 1% deoxycholate, 1% Triton X-100, 0.1% SDS, pH 7.4) plus protease inhibitor cocktail (Complete Mini; Roche) using 100 μL buffer per 1 × 10^6 cells. After sonication using a Fisher sonic dismembrator with microprobe (Fisher Scientific; five pulses at 2 s intervals) and centrifugation at 13,000 rpm for 30 min, the protein lysates (supernatants) were recovered, and protein concentrations determined using a bicinchoninic acid (BCA) assay (Bio-Rad). The samples were then deproteinated using Abcam 10 kDa Spin Columns (ab93349; which reduced the protein concentration by about 90%) and the samples were standardized at <10 μg of protein per sample per 50 μL of assay volume (as directed by the Abcam technical response team for working with these samples). The concentration of succinate (nmol/μL or μmol/mL or […]) for each sample was calculated after subtracting a background control (which was the sample run with assay buffer in place of the succinate converter component to account for and subtract any contaminating signal generated by NADH), as follows: Succinate = (A/B) × D; where: A = Amount of succinate (succinic acid) from the Standard Curve; B = Sample volume added into the reaction well (μL); D = Sample dilution factor. Two separate experiments were performed for each cell line.

MDA-MB-231 = test: Succinate level (Abcam kit, hypoxia); assay type: cell-based, human; details: MDA-MB-231, 100 nM, 72 h, vs vehicle control
Method: as §1

COLO205 = test: Succinate level (Abcam kit, hypoxia); assay type: cell-based, human; details: COLO205, 100 nM, 72 h, vs vehicle control
Method: as §1

SK-MEL28 = test: Succinate level (Abcam kit, hypoxia); assay type: cell-based, human; details: SK-MEL28, 100 nM, 72 h, vs vehicle control
Method: as §1

M14 = test: NCI 60 cytotoxicity screening; assay type: cell-based; details: Homo sapiens; M14, Melanoma
Integrin β4 = Integrin β4 (Homo sapiens, UniProt P16144); test: Surface plasmon resonance (Biacore); assay type: binding; details: Integrin β4, SPR
Sequence of Integrin β4 (P16144 28-1822): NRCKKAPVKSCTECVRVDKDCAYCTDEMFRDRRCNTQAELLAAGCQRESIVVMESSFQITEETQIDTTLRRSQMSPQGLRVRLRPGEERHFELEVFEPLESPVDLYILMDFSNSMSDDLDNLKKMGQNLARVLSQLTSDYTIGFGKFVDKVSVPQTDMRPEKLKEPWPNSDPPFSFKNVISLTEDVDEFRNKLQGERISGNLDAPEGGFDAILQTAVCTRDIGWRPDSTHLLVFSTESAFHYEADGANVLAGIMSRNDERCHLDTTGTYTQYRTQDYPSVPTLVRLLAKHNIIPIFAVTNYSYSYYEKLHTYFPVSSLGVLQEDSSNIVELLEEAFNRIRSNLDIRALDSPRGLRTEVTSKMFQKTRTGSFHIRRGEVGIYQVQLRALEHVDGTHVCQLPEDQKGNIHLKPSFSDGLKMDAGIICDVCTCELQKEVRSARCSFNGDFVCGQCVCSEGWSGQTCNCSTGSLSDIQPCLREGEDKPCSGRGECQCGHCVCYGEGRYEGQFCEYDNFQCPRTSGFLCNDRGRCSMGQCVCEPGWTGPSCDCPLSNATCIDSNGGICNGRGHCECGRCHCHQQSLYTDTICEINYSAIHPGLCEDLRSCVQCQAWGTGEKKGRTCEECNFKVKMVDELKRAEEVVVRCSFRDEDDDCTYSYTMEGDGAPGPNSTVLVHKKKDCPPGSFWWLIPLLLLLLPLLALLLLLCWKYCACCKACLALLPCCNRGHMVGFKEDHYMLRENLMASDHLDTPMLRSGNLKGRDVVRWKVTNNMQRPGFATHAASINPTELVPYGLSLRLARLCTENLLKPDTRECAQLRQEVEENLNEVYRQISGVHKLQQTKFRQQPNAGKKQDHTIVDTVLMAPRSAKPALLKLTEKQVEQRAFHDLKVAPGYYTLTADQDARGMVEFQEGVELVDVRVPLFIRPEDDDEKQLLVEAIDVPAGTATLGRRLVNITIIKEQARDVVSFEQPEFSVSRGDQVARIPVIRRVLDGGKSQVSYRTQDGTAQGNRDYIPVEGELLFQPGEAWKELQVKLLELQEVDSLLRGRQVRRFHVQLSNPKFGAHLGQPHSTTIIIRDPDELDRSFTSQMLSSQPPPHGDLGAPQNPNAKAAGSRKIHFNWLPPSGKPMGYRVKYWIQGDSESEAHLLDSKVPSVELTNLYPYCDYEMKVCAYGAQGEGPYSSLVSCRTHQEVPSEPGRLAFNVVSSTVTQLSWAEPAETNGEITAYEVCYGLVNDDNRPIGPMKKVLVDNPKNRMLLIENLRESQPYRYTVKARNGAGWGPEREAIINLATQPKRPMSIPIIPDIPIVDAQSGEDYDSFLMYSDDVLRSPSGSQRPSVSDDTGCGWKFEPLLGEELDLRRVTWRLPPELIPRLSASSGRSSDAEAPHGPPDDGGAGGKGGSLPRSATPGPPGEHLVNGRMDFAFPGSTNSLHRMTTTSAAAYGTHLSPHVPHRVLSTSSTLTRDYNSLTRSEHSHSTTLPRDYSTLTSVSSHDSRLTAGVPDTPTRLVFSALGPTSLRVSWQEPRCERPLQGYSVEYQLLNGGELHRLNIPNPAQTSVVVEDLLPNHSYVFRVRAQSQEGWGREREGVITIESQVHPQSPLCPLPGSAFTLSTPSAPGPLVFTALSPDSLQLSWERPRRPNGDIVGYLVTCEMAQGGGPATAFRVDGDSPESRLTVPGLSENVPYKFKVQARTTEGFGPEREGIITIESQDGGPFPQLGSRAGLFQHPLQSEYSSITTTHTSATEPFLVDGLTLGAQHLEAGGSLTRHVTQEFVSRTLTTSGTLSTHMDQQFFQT

K-562 = test: NCI 60 cytotoxicity screening; assay type: cell-based; details: Homo sapiens, K562; K-562, Leukemia
TGFβig-h3 = target: T1, TGFβig-h3 (Homo sapiens, UniProt Q15582); test: Surface plasmon resonance (Biacore); assay type: binding; details: TGFβig-h3, SPR
T1 sequence (Q15582 24-683): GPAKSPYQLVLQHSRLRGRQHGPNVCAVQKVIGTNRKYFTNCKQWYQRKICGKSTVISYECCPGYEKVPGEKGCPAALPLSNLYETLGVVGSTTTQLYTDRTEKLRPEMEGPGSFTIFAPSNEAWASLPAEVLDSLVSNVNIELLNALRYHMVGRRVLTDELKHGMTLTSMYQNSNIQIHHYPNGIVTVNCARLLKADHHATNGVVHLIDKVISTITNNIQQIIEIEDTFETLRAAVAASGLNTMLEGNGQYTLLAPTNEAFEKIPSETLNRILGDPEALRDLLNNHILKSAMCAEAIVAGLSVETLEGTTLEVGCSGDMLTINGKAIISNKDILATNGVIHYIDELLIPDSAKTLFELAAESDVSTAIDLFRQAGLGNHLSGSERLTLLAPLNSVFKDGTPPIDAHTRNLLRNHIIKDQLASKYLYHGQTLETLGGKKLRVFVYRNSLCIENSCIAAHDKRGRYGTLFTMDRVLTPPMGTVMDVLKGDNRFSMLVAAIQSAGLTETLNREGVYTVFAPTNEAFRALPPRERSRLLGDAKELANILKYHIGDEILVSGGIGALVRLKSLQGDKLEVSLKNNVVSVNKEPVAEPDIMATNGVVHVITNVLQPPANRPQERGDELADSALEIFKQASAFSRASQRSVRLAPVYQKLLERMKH

SF-539 = test: NCI 60 cytotoxicity screening; assay type: cell-based; details: Homo sapiens; SF-539, CNS
GADD45GIP1 = GADD45GIP1 (Homo sapiens, UniProt Q8TAE8); test: Surface plasmon resonance (Biacore); assay type: binding; details: GADD45GIP1, SPR

Compound | reduction of VM network formation (VM channels) (HCT-116) [%] | GI50 (MOLT-4) [nM] | reduction of succinate levels (SKOV3) [%] | reduction of succinate levels (MDA-MB-231) [%] | reduction of succinate levels (COLO205) [%] | reduction of succinate levels (SK-MEL28) [%] | GI50 (M14) [nM] | Association (ka) (Integrin β4) | Dissociation (kd) (Integrin β4) | KD (kd/ka) (Integrin β4) | GI50 (K-562) [nM] | Association (ka) (TGFβig-h3) | Dissociation (kd) (TGFβig-h3) | KD (kd/ka) (TGFβig-h3) | GI50 (SF-539) [nM] | Association (ka) (GADD45GIP1) | Dissociation (kd) (GADD45GIP1) | KD (kd/ka) (GADD45GIP1)
COc1ccc2[nH]c(-c3cccc(F)c3)cc(=O)c2c1OP(=O)(O)O [CVM-1118] | 85 | – | – | – | – | – | – | – | – | – | – | – | – | – | – | – | – | –
COc1ccc2[nH]c(-c3cccc(F)c3)cc(=O)c2c1O [CVM-1125] | – | 47.6 | 35 | 20 | 18 | 23 | 18.9 | No dose dependent interaction | No dose dependent interaction | No dose dependent interaction | 24.1 | No interaction | No interaction | No interaction | 26.2 | No interaction | No interaction | No interaction
